Data as given in patent publication US20200308222A1, “ANTIMICROBIAL TETRAPEPTIDES” (DSM IP ASSETS B.V., priority 2017, published 2020).
Non-standard residues stand in square brackets, D forms with d. Residues, ends and D or L forms follow the SMILES beside them. *: point of attachment. 2Nal = N[C@@H](Cc1ccc2ccccc2c1)C(=O)O; d2Nal = N[C@H](Cc1ccc2ccccc2c1)C(=O)O; Butanoyl(4-Ph) = O=C(CCCc1ccccc1)*; Dab = NCC[C@H](N)C(=O)O

How the values were obtained:
Test in all cases: Minimum inhibitory concentration (MIC), liquid media method in 96-well plates
S. aureus (ATCC 6538) = format: cell-based, Staphylococcus aureus; details: about 7×10^5 cfu/ml per well; incubated 48 hours at 32,5° C.; turbidity read-out
Procedure: (§1) The peptides are dissolved in culture medium at 400 ppm. A control in the microbiological medium alone and a control consisting of Phenonip® prepared to 5% (v/v) directly in the microbiological medium was used. The determination of minimal inhibitory concentration of each product is performed according to a liquid media method adapted in 96-wells plates. To determine the minimum inhibitory concentration (MIC), the peptides are tested in serial dilutions (½ to ½ for 8 dilutions) directly in the liquid culture medium to favor the growth of bacteria in microplate 96 wells. Then, each point of dilution is contaminated with each strain at about 7×10^5 cfu/ml for S. aureus (ATCC 6538), 5.5×10^5 cfu/ml for P. acnes (ATCC 11827) and 1,2×10^5 cfu/ml for B. subtilis (ATCC 6633) per well. Finally, plates are incubated 48 hours at 32, 5° C.±2.5° C., taking care to respect the respiratory type of each strain. […] The last dilution corresponding to the absence of bacterial growth is taken as minimum inhibitory concentration (MIC) for the microbial strain considered.

B. subtilis (ATCC 6633) = format: cell-based, Bacillus subtilis; details: 1,2×10^5 cfu/ml per well; incubated 48 hours at 32,5° C.; turbidity read-out
Procedure: as §1

P. acnes (ATCC 11827) = format: cell-based, Propionibacterium acnes; details: 5.5×10^5 cfu/ml per well; incubated 48 hours at 32,5° C.; turbidity read-out
Procedure: as §1

Row | Structure (SMILES) | MIC values S. aureus (S. aureus (ATCC 6538)) | MIC values B. subtilis (B. subtilis (ATCC 6633)) | MIC values P. acnes (P. acnes (ATCC 11827))
1 | N=C(N)NCCC[C@H](NC(=O)[C@@H](Cc1ccccc1)NC(=O)[C@H](Cc1c[nH]cn1)NC(=O)CCCc1ccccc1)C(=O)N[C@@H](Cc1c[nH]c2ccccc12)C(=O)NCc1ccccc1 [I-f, PhBu-His-D-Phe-Arg-Trp-NH-Bn *2TFA] | 400 ppm | 252 ppm | –
2 | N=C(N)NCCC[C@H](NC(=O)[C@@H](Cc1ccccc1)NC(=O)[C@H](Cc1c[nH]cn1)NC(=O)CCCc1ccccc1)C(=O)N[C@@H](Cc1c[nH]c2ccccc12)C(=O)NCC(O)CO (stereo partly drawn) [I-h, PhBu-His-D-Phe-Arg-Trp-NH—CH2—CH(OH)—CH2OH *2TFA] | – | 317 ppm | –
3 | CCCN(CCC)C(=O)[C@H](Cc1c[nH]c2ccccc12)NC(=O)[C@H](CCCNC(=N)N)NC(=O)[C@@H](Cc1ccccc1)NC(=O)[C@H](Cc1c[nH]cn1)NC(=O)CCCc1ccccc1 [I-d, PhBu-His-D-Phe-Arg-Trp-N(Propyl)2 *2TFA] | 31.3 ppm | 15.6 ppm | 125 ppm
4 | CCCCCCCCNC(=O)[C@H](Cc1c[nH]c2ccccc12)NC(=O)[C@H](CCCNC(=N)N)NC(=O)[C@@H](Cc1ccccc1)NC(=O)[C@H](Cc1c[nH]cn1)NC(=O)CCCc1ccccc1 [I-g, PhBu-His-D-Phe-Arg-Trp-NH-Octyl *2TFA] | 200 ppm | 252 ppm | –

Now from value to compound:

Row | MIC values S. aureus (S. aureus (ATCC 6538)) | MIC values B. subtilis (B. subtilis (ATCC 6633)) | MIC values P. acnes (P. acnes (ATCC 11827)) | Structure (SMILES)
5 | – | 400 ppm | – | NCC[C@H](NC(=O)[C@@H](Cc1ccccc1)NC(=O)[C@H](Cc1c[nH]cn1)NC(=O)CCCc1ccccc1)C(=O)N[C@@H](Cc1c[nH]c2ccccc12)C(N)=O [I-e, PhBu-His-D-Phe-Dab-Trp-NH2 *2TFA] ({Butanoyl(4-Ph)}-H[dF][Dab]W-NH2)
6 | – | 100 ppm | 400 ppm | N=C(N)NCCC[C@H](NC(=O)[C@@H](Cc1ccccc1)NC(=O)[C@H](Cc1c[nH]cn1)NC(=O)CCCc1ccccc1)C(=O)N[C@H](Cc1ccc2ccccc2c1)C(N)=O [I-b, PhBu-His-D-Phe-Arg-D-2NaphAla-NH2 *2TFA] ({Butanoyl(4-Ph)}-H[dF]R[d2Nal]-NH2)
7 | – | 200 ppm | – | COc1ccc(CCCC(=O)N[C@@H](Cc2c[nH]cn2)C(=O)N[C@H](Cc2ccccc2)C(=O)N[C@@H](CCCNC(=N)N)C(=O)N[C@@H](Cc2c[nH]c3ccccc23)C(N)=O)cc1 [I-c, 4-MeO—PhBu-His-D-Phe-Arg-Trp-NH2 × 2 AcOH]
8 | 125 ppm | 62.5 ppm | 500 ppm | N=C(N)NCCC[C@H](NC(=O)[C@@H](Cc1ccccc1)NC(=O)[C@H](Cc1c[nH]cn1)NC(=O)CCCc1ccccc1)C(=O)N[C@@H](Cc1ccc2ccccc2c1)C(N)=O [I-a, PhBu-His-D-Phe-Arg-L-2NaphAla-NH2 *2TFA] ({Butanoyl(4-Ph)}-H[dF]R[2Nal]-NH2)
